Reference: patent US20110065756A1, “METHODS AND COMPOSITIONS FOR TREATMENT OF OBESITY-RELATED DISEASES” (priority 2009, published 2011)

What was measured:
[1] = clinical use; cited from earlier work
[2] = Rosiglitazone treatment of diet-induced obese mice: body weight, fasting plasma glucose and insulin, IPGTT; assay type: in vivo; conditions: obese C57BL/6J mice, 10 mg/kg/day by gavage, vs vehicle
Description: Ten adult (6 week-old) male C57BL/6J mice were purchased from the Jackson Laboratory. Mice were housed in a pathogen-free barrier facility (12 h light/12 h dark cycle). […] Mice were weighed every 4 weeks. After 12 weeks blood was collected after a 6 hour fast and plasma glucose levels were analyzed using the Accu-Check glucose meter. Subsequently, mice were treated with rosiglitazone (10 mg/kg/day in 1% carboxymethylcellulose in water) or vehicle by gavaging for 10 days. On day 10 the animals were subjected to an intraperitoneal glucose tolerance test (IPGTT) after a 16 hr overnight fast. Plasma glucose levels were determined at 0, 15, 30, 60 and 120 min using an Accu-Check glucose meter; at each time point 10 μl blood was collected in EDTA-coated tubes (Microvette CB300, Sarstedt, Newton, N.C.) for determination of insulin levels using an ELISA specific for mouse insulin (Alpco Diagnostics, Salem, N.H.). After the IPGTT, mice received a final treatment with rosiglitazone or vehicle (day 11) and were euthanized the next day (day 12) after a 6 hour fast under anaesthesia with isoflurane (Baxter). The epididymal fat pads, subcutaneous fat pads, liver and kidneys were harvested and stored at −80° C. for further analysis.
Results are expressed as mean±SEM. […]

[3] = RECORD, cited from earlier work

Row | Compound | incidence of hepatitis and potential liver failure [1] | body weight [2] | cardiovascular death, myocardial infarction, or stroke ([3]; 5-7 years follow-up, vs active control group) | upper and distal lower limb fracture rates ([3]; particularly in women) | heart failure that caused either hospital admission or death ([3]; rosiglitazone group (29 in active control group)) [patients] | risk difference per 1000 person-years for heart failure ([3]; vs active control, interval 1.1-4.1) | hazard ratio [HR] for heart failure ([3]; vs active control, interval 1.35-3.27)
1 | CCc1ccc(CCOc2ccc(CC3SC(=O)NC3=O)cc2)nc1 (centres unmarked) [pioglitazone] | have not shown higher incidence | – | – | – | – | – | –
2 | CN(CCOc1ccc(CC2SC(=O)NC2=O)cc1)c1ccccn1 (centres unmarked) [rosiglitazone] | have not shown higher incidence | did not influence weight | No difference was observed | increased | 61 | 2.6 | 2.10
